Test results reported in article PMC314469, “Protein Interaction Networks by Proteome Peptide Scanning” (PLoS Biology, 2004).
pKd: −log10 of the molar value. No end group written: not given here.

Columns and labels:
[1] = target: T1, Rvs167 SH3 domain (GST-fused) (Saccharomyces cerevisiae, UniProt P39743); assay: Surface plasmon resonance (BIAcoreX) dissociation constants of peptides, Rvs167 SH3 domain; format: binding; conditions: Figure 4A; SPR BIAcoreX, GST-SH3 coupled to CM5 chip, GST control; peptides in 10 mM HEPES, 150 mM NaCl, 3.4 mM EDTA, 0.005% P20, pH 7.4, 25°C; steady-state model; read-out: dissociation constant, SH3 DOMAINS RVS167
T1 construct: Experiments were carried out on sensor chips with GST-fused SH3 domains and GST as a control; made in house
Description: Figure 4 Measurement of Dissociation Constants and Correlation with SPOT Intensities (A) Dissociation constants were measured with a BIAcoreX instrument as described in the Materials and Methods. The experiments with the Abp1 SH3 domain were carried out in triplicate. (B) Normalized BLU intensities plotted as a function of the log of the dissociation constant.
Surface plasmon resonance measurements were carried out with a BIAcoreX instrument (BIAcore, Uppsala, Sweden). Experiments were carried out on sensor chips with GST-fused SH3 domains and GST as a control. […] Interaction analysis was performed at 25°C with the peptides dissolved in 10 mM HEPES, 150 mM NaCl, 3.4 mM EDTA, and 0.005% surfactant P20 (pH 7.4), at 15 μl/min flow rate, using six to seven dilutions, ranging from 500 μM to 65 nM. Dissociation constant values were evaluated by applying the steady-state model using BIAcore evalution 3.1 software.

Myo5 SH3 domain = assay: SPOT analysis of cellulose-bound peptides (WISE), Myo5 SH3 domain (Dataset S4); format: binding, Saccharomyces cerevisiae; conditions: for The normalized value in BLU units: Myo5 SH3 domain
[2] = SPOT analysis of cellulose-bound 14-mer yeast proteome peptides, normalized value, mean where the peptide was synthesized more than once
[3] = SPOT analysis of membrane-bound peptides, normalized value (see methods)
[4] = SPOT analysis of cellulose-bound peptides probed with Myo5 SH3 domain, normalized value
[5] = SPOT analysis of membrane-synthesized peptides probed with Myo5 SH3 domain, normalized value

T1 sequence (P39743 421-482 limits assumed): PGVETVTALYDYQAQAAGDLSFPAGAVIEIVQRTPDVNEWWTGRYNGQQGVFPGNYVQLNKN

GKDKSRPPRPPPKP [PK1 GKDKSRPPRPPPKP]
pKd [1]: < 4.00

RPKRRAPPPVPKKP [YIR003 RPKRRAPPPVPKKP]
pKd [1]: 4.89

TYLTRPLPSTPNED
The normalized value in BLU units (Myo5 SH3 domain; [2]): 101.0 BLU

VAGYFVIPHTPMPS
The normalized value in BLU units (Myo5 SH3 domain; [2]): 179.6 BLU

VAKSYGFPVPPKVN
The normalized value in BLU units (Myo5 SH3 domain; [2]): 258.9 BLU

VAPGLWFPNSPPPL
The normalized value in BLU units (Myo5 SH3 domain; [2]): 4831.4 BLU

VAPNRIPPKVPVIN
The normalized value in BLU units (Myo5 SH3 domain; [3]): 61069.9 BLU

VARPLSVPGSPRDL
The normalized value in BLU units (SPOT analysis, Myo5 SH3) (Myo5 SH3 domain; [4]): 186.0 BLU

VASSRTEPSTPSRP
The normalized value in BLU units (Myo5 SH3 domain; [3]): 178.5 BLU

VAVPFTLPVIPYDL
The normalized value in BLU units (SPOT analysis, Myo5 SH3) (Myo5 SH3 domain; [4]): 240.5 BLU

VAWCHDSPKPPSDR
The normalized value in BLU units (Myo5 SH3 domain; [2]): 30.6 BLU

VCHSKYIPLKPIQD
The normalized value in BLU units (Myo5 SH3 domain; [3]): 298.3 BLU

VCTIRSTPSQPIHC
The normalized value in BLU units (SPOT analysis, Myo5 SH3) (Myo5 SH3 domain; [5]): 244.9 BLU

VDSFKYEPLAPGND
The normalized value in BLU units (Myo5 SH3 domain; [3]): 134.0 BLU

VEKRKFTPIEPSLL
The normalized value in BLU units (Myo5 SH3 domain; [3]): 171.2 BLU

VELHFPKPEDPACI
The normalized value in BLU units (Myo5 SH3 domain; [2]): 14.9 BLU

VEMKRKKPVRPVDI
The normalized value in BLU units (Myo5 SH3 domain; [3]): 472.2 BLU

VEPEWYLPILPMIL
The normalized value in BLU units (SPOT analysis, Myo5 SH3) (Myo5 SH3 domain; [4]): 235.7 BLU

VEVDKKVPVLPMVA
The normalized value in BLU units (SPOT analysis, Myo5 SH3) (Myo5 SH3 domain; [5]): 129.9 BLU

VEVIMHSPSDPEYA
The normalized value in BLU units (SPOT analysis, Myo5 SH3) (Myo5 SH3 domain; [4]): 150.4 BLU

VFGTYLGPDAPLSK
The normalized value in BLU units (Myo5 SH3 domain; [2]): 130.5 BLU

VFKFLFHPVTPSHF
The normalized value in BLU units (Myo5 SH3 domain; [2]): 564.7 BLU

VFLRLISPTRPSLE
The normalized value in BLU units (SPOT analysis, Myo5 SH3) (Myo5 SH3 domain; [4]): 1635.5 BLU

VFSCLRDPVIPIKL
The normalized value in BLU units (Myo5 SH3 domain; [2]): 132.4 BLU

VFSLMNCPAYPDVQ
The normalized value in BLU units (SPOT analysis, Myo5 SH3) (Myo5 SH3 domain; [4]): 153.4 BLU

VFVEKSKPTYPGTE
The normalized value in BLU units (SPOT analysis, Myo5 SH3) (Myo5 SH3 domain; [5]): 96.4 BLU

VFYHRPAPKPPVTK
The normalized value in BLU units (Myo5 SH3 domain; [3]): 9049.3 BLU

VHFYKSLPQGPAPA
The normalized value in BLU units (SPOT analysis, Myo5 SH3) (Myo5 SH3 domain; [5]): 509.7 BLU

VHVLKYAPDEPNSL
The normalized value in BLU units (SPOT analysis, Myo5 SH3) (Myo5 SH3 domain; [5]): 191.3 BLU

VIIGKTTPISPDEE
The normalized value in BLU units (Myo5 SH3 domain; [3]): 54.0 BLU

VKATKWPPKLPEIQ
The normalized value in BLU units (SPOT analysis, Myo5 SH3) (Myo5 SH3 domain; [5]): 57.4 BLU

VKKEKKPPKIPKKV
The normalized value in BLU units (SPOT analysis, Myo5 SH3) (Myo5 SH3 domain; [5]): 534.4 BLU

VKPTKLEPENPQKP
The normalized value in BLU units (SPOT analysis, Myo5 SH3) (Myo5 SH3 domain; [5]): 91.3 BLU

VKRPRLNPFLPRDE
The normalized value in BLU units (Myo5 SH3 domain; [3]): 1186.3 BLU

VLEAYNVPTPPRLE
The normalized value in BLU units (Myo5 SH3 domain; [2]): 57.4 BLU

VLFMKGTPEFPKCG
The normalized value in BLU units (SPOT analysis, Myo5 SH3) (Myo5 SH3 domain; [5]): 212.8 BLU

VLFNLDHPMVPENL
The normalized value in BLU units (SPOT analysis, Myo5 SH3) (Myo5 SH3 domain; [4]): 220.3 BLU

VLGPKYDPKCPEEH
The normalized value in BLU units (SPOT analysis, Myo5 SH3) (Myo5 SH3 domain; [5]): 156.7 BLU

VLGVLNVPLPPQTR
The normalized value in BLU units (SPOT analysis, Myo5 SH3) (Myo5 SH3 domain; [4]): 233.0 BLU

VLIKFVIPVYPSLP
The normalized value in BLU units (SPOT analysis, Myo5 SH3) (Myo5 SH3 domain; [4]): 561.8 BLU

VLKGFYSPSAPSYD
The normalized value in BLU units (SPOT analysis, Myo5 SH3) (Myo5 SH3 domain; [4]): 290.1 BLU

VLKIKPLPYKPRGR
The normalized value in BLU units (SPOT analysis, Myo5 SH3) (Myo5 SH3 domain; [5]): 646.7 BLU

VLKNLPTPGEPFNF
The normalized value in BLU units (Myo5 SH3 domain; [2]): 148.4 BLU

VLKTLAFPINPSDI
The normalized value in BLU units (SPOT analysis, Myo5 SH3) (Myo5 SH3 domain; [4]): 156.0 BLU

VLLPLRLPEIPPKG
The normalized value in BLU units (Myo5 SH3 domain; [2]): 1072.4 BLU

VLSKFIKPKNPSLV
The normalized value in BLU units (SPOT analysis, Myo5 SH3) (Myo5 SH3 domain; [4]): 319.5 BLU

VLTKMNAPQKPEDI
The normalized value in BLU units (Myo5 SH3 domain; [2]): 296.2 BLU

VLTVKMSPSLPDEI
The normalized value in BLU units (SPOT analysis, Myo5 SH3) (Myo5 SH3 domain; [5]): 229.5 BLU

VNIGRRSPYLPLQP
The normalized value in BLU units (SPOT analysis, Myo5 SH3) (Myo5 SH3 domain; [5]): 476.3 BLU

VNTPRSVPNSPNDG
The normalized value in BLU units (Myo5 SH3 domain; [3]): 65.0 BLU

VPAILMTPICPRSL
The normalized value in BLU units (SPOT analysis, Myo5 SH3) (Myo5 SH3 domain; [4]): 138.1 BLU

VPDQLLTPLQPYTI
The normalized value in BLU units (SPOT analysis, Myo5 SH3) (Myo5 SH3 domain; [4]): 168.3 BLU

VPDSYKPPKNPIVF
The normalized value in BLU units (Myo5 SH3 domain; [2]): 829.4 BLU

VPGEHFAPMGPNGQ
The normalized value in BLU units (Myo5 SH3 domain; [2]): 64.7 BLU

VPGGMSIPGAPQGA
The normalized value in BLU units (SPOT analysis, Myo5 SH3) (Myo5 SH3 domain; [4]): 139.5 BLU

VPIDKKSPFYPGLD
The normalized value in BLU units (Myo5 SH3 domain; [3]): 150.4 BLU

VPIIFEIPFNPIYK
The normalized value in BLU units (Myo5 SH3 domain; [2]): 214.9 BLU

VPLPFGIPPFPMFP
The normalized value in BLU units (SPOT analysis, Myo5 SH3) (Myo5 SH3 domain; [4]): 11610.9 BLU

VPNRWATPLDPSIL
The normalized value in BLU units (SPOT analysis, Myo5 SH3) (Myo5 SH3 domain; [4]): 125.7 BLU

VPPNFNAPPNPMAF
The normalized value in BLU units (Myo5 SH3 domain; [2]): 1568.9 BLU

VPSAFTAPPVPTKK
The normalized value in BLU units (Myo5 SH3 domain; [2]): 358.2 BLU
